Results from article PMC11510805, “In Vivo Effects of a GHR Synthesis Inhibitor During Prolonged Treatment in Dogs” (Pharmaceuticals, 2024).

What was measured:
CYP2C8 = target: T1, CYP2C8 (Homo sapiens, UniProt P10632); conditions: human liver microsomes
T1 sequence (P10632 1-490): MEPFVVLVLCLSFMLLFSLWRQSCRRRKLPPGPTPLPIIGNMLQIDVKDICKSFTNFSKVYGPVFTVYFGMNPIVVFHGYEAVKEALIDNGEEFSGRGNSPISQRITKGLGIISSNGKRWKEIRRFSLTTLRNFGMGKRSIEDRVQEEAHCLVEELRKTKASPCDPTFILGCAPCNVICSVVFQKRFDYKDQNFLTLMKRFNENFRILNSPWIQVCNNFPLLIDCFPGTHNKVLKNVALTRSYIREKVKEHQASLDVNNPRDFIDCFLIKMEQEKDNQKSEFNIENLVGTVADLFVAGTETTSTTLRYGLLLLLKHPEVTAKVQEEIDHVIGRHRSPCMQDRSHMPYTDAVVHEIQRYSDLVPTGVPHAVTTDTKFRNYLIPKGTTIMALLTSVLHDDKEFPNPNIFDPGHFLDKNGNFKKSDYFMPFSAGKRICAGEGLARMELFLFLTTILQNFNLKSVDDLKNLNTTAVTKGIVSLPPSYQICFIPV

CYP2C19 = CYP2C19 (Homo sapiens, UniProt P33261); conditions: human liver microsomes
CYP2C19, sequence (P33261 whole entry): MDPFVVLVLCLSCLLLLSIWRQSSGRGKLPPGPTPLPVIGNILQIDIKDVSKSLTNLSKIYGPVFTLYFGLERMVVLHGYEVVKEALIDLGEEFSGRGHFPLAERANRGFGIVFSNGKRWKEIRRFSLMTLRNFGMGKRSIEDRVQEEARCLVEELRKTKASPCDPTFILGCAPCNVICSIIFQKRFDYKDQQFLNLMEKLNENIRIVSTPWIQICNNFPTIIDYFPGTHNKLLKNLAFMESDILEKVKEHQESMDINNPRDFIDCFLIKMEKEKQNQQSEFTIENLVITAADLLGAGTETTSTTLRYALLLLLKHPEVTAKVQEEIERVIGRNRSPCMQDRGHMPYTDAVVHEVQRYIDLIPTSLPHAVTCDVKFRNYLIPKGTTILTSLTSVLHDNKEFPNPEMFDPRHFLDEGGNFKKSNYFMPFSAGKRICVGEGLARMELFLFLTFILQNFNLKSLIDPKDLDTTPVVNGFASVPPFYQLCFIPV

CYP2C8 Imax of reference inhibitor (CYP2C8) [%]	CYP2C19 Imax of reference inhibitor (CYP2C19) [%]	Compound
88	–	O=c1c(O)c(-c2ccc(O)c(O)c2)oc2cc(O)cc(O)c12 [Quercetin]
–	87	C=C(C)[C@@H]1CCC2=CC(=O)C[C@@H](C)[C@]2(C)C1 [Nootkatone]
